Common to all, as to format: cell-based, human
The subject of assay [1] is CD8+ T cells (HLA-A*0201 donors). The assay can be described thus: In vitro CTL induction with peptide-pulsed DCs (positive donor number). Particulars: HLA-A*0201, 9-mer peptides derived from INHBB; positive/total donors. An outline of the steps:
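Monocyte-derived DCs (GM-CSF/IL-4, 7 days) pulsed with 20 μg/ml peptide plus β2-microglobulin, MMC-inactivated, co-cultured 1:20 with autologous CD8+ T cells with IL-7, then IL-2; restimulated days 7 and 14. CTL activity tested against peptide-pulsed T2 cells on day 21; value = positive donors/total donors.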

The subject of assay [2] is peptide-pulsed A24-LCL cells. Description: IFN-gamma ELISPOT assay (positive wells). Particulars: HLA-A*2402, 9-mer peptides derived from INHBB; positive/total wells. In a few lines:
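PBMC-derived DCs from HLA-A*2402 and/or A*0201 donors, pulsed with 20 micro g/ml peptide plus 3 micro g/ml beta 2-microglobulin, stimulated autologous CD8+ T cells three times (days 0, 7, 14). On day 21, responders were tested against peptide-pulsed A24-LCL or T2 cells by IFN-gamma ELISPOT. Values are reported as positive wells/wells tested; CTL lines confirmed by ELISA.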

The test system of another assay is peptide-pulsed T2 cells. The assay can be described thus: IFN-gamma ELISPOT assay (positive wells). The note with it: HLA-A*0201, 9-mer peptides derived from INHBB; positive/total wells. An outline of the steps:
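CD8+ T cells from HLA-A*2402 and/or HLA-A*0201 donors were stimulated 1:20 with autologous monocyte-derived DCs pulsed with 20 µg/ml peptide plus β2-microglobulin, in IL-7, with IL-2 added, restimulated on days 7 and 14. On day 21, IFN-γ ELISPOT against peptide-pulsed T2 or A24-LCL cells (1×10^4/well) scored wells as positive, with CTL lines confirmed by ELISA.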

VQCDSCQEL: in assay [1], the positive donor number was 0/1. The positive well number in assay [2] is 0/8; with peptide-pulsed T2 cells, 1/8.

For the origin of these results see patent publication US8759481B2, “Peptide vaccines for cancers expressing tumor-associated antigens” (Oncotherapy Science, Inc., priority 2007, dated 2014).
